Assay results: article PMC9841519, “Corrole Nanoparticles for Chemotherapy of Castration-Resistant Prostate Cancer and as Sonodynamic Agents for Pancreatic Cancer Treatment” (Journal of Medicinal Chemistry, 2022)

What was measured:
SK-MEL-28 = experiment: MTT assay, antitumor activity (Figure 1 table); details: for IC50: read-out: IC50 (μM) SK-MEL-28
Experimental: (§1) Cell death was evaluated using a colorimetric [3-(4,5-dimethyl-thiazol-2-yl)-2,5-diphenyl-tetrazolium bromide] (MTT) assay. […] Cells intended for US exposure were plated separately. […] After this incubation period, purple formazan salt crystals were formed by a NADP/NADPH-dependent process, in metabolically active cells. […] The absorption of MTT was determined in a Tecan Sunrise Elisa-Reader (Switzerland) at 570/650 nm after automatic subtraction of background readings.

DU-145 = experiment: MTT assay, antitumor activity (Figure 1 table); details: for IC50: read-out: IC50 (μM) DU-145
Experimental: as §1

MDA-MB-231 = experiment: MTT assay, antitumor activity (Figure 1 table); details: for IC50: read-out: IC50 (μM) MDA-MB-231
Experimental: as §1

OVCAR-3 = experiment: MTT assay, antitumor activity (Figure 1 table)
Experimental: as §1

Salmonella strain TA98 = experiment: Ames mutagenicity test
Text: (§2) Briefly, the Ames test uses 5 bacterial strains (Salmonella and E. coli) that are exposed to a given compound with and without an enzymatic bioactivation system derived from rodent liver (S9). Each bacterial strain has a different loss of function mutation in a gene essential for the biosynthesis of a required amino acid, histidine in Salmonella or tryptophan in E. coli, such that they cannot grow and form colonies on agar plates lacking these amino acids.

[1] = tested on: several human cancer cell lines; experiment: Screening of corrole derivatives and their NPs on several cancer cell lines; type: cell-based; details: not consistent upon repeated experiments for 2-Au
Experimental: Multiple corrole derivatives and their NPs were tested on several cancer cell lines. These include several metal chelated derivatives of 5,10,15-tris(pentafluorophenyl)corrole (2-H3) (Figure 1A); β-substituted (iodinated and brominated) corroles and several of its metal chelates (only 4-Au data are shown); different meso substituted corroles and their metal chelates (e.g., 5,15-di(pentafluorophenyl)-10-(imidazolyl)-corrole gallium(III), not presented); and the new synthetically available compound 5,10,15-tris(trifluoromethyl)corrole with different chelated metals (only the gallium(III) chelate 3-Ga is presented in Figure 1A). […] The best candidates from the high molecular weight list of corrole derivatives were the gold complexes 2-Au and 4-Au. […] Though there was an apparent effect on the cell cycle progression of the treated cells, there was no apparent cell death outcome accompanying the cell cycle arrest. Furthermore, the cell population within the culture wells appeared to be dividing freely and completely covering the wells’ surface (data not shown).

Salmonella strain TA100 = experiment: Ames mutagenicity test; details: S9: Yes
Text: as §2

| SMILES | IC50 (SK-MEL-28) [µM] | IC50 (DU-145) [µM] | IC50 (MDA-MB-231) [µM] | further results |
| --- | --- | --- | --- | --- |
| Fc1c(F)c(F)c(C2=C3C=CC(=N3)C(c3c(F)c(F)c(F)c(F)c3F)=c3ccc4[n]3[Au]3[n]5c2ccc5-c2ccc([n]23)C=4c2c(F)c(F)c(F)c(F)c2F)c(F)c1F [2-Au] | 0.006 to 5 | 0.005 to 4 | 0.01 to 1 |  |
| Fc1c(F)c(F)c(-c2c3nc(c(-c4c(F)c(F)c(F)c(F)c4F)c4ccc([nH]4)c4ccc([nH]4)c(-c4c(F)c(F)c(F)c(F)c4F)c4ccc2[nH]4)C=C3)c(F)c1F [2-H3, 5,10,15-tris(pentafluorophenyl)corrole] |  |  |  | IC50 (μM) OVCAR-3 (OVCAR-3): ambiguous; IC50 (μM) SK-MEL-28 (SK-MEL-28): ambiguous; IC50 (μM) DU-145 (DU-145): ambiguous; IC50 (μM) MDA-MB-231 (MDA-MB-231): ambiguous |
| Fc1c(F)c(F)c(C2=C3C=CC(=N3)C(c3c(F)c(F)c(F)c(F)c3F)=c3ccc4[n]3[Mn]3[n]5c2ccc5-c2ccc([n]23)C=4c2c(F)c(F)c(F)c(F)c2F)c(F)c1F [2-Mn] | 5 | 10 | 4 |  |
| O=[N+]([O-])c1ccc2c(c1)Cc1ccccc1-2 [2-nitrofluorine] |  |  |  | AMES Result (Positive/Negative) (Salmonella strain TA98; S9: No): Positive |
| Fc1c(F)c(F)c(C2=C3C=CC(=N3)C(c3c(F)c(F)c(F)c(F)c3F)=c3ccc4[n]3[Au]3[n]5c2c(I)c(I)c5-c2c(I)c(I)c([n]23)C=4c2c(F)c(F)c(F)c(F)c2F)c(F)c1F [4-Au] | 1 to 10 | 0.07 to 1 | 1 to 10 | IC50 values in several human cancer cell lines (in words) [1]: submicromolar to single micromolar; IC50 (OVCAR-3; read-out: IC50 (μM) OVCAR-3): 1 µM |
| Nc1cccc2cc3ccccc3cc12 [aminoanthracene] |  |  |  | AMES Result (Positive/Negative) (Salmonella strain TA100): Positive; AMES Result (Positive/Negative) (Salmonella strain TA98; S9: Yes): Positive |
